Laboratory results as given in article PMC8465095, “Secondary Metabolites with α-Glucosidase Inhibitory Activity from Mangrove Endophytic Fungus Talaromyces sp. CY-3” (Marine Drugs, 2021).
Where two headings read alike, the source gives them in different places.

Molecular target: α-glucosidase (Saccharomyces cerevisiae, UniProt P53341)
Test: biochemical
[1] = read-out: α-glucosidase inhibitory activity IC50
[2] = positive control 1-deoxynojirimycin, DMSO blank, read-out: α-glucosidase inhibitory activity IC50

Sequence of α-glucosidase (P53341 whole entry): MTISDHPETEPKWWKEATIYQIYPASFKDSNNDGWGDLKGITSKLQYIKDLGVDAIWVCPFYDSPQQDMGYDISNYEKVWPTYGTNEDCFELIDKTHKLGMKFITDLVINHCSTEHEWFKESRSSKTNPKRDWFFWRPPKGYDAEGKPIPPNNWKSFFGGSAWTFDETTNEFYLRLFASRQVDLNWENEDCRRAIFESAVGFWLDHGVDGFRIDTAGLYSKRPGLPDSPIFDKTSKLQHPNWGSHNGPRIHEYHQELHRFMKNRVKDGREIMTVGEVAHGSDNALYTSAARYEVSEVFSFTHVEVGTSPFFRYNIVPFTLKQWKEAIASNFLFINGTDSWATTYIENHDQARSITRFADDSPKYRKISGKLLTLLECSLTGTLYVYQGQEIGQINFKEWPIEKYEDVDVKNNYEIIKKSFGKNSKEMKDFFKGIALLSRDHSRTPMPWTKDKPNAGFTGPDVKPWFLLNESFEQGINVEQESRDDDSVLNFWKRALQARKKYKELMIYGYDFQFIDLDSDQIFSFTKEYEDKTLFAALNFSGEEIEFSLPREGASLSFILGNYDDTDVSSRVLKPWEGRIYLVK

SMILES | IC50 [1] [µM] | other results
CCC(C)CC(C)C=C(C)C1OC(c2c(O)c(-c3ccccc3)cn(C)c2=O)CCC1C (stereo not drawn) [Compound 1, Sambutoxin A] | – | IC50: 12.6 ± 0.9 µM
CCC(C)CC(C)C=C(C)C1OC(c2c(O)c(-c3ccc(O)cc3)cn(C)c2=O)CC=C1C (stereo not drawn) [Compound 2, Sambutoxin B] | – | IC50: 37.4 ± 1.4 µM
CC[C@H](C)C[C@@H](C)/C=C(\C)[C@@H]1O[C@H](c2c(O)c(-c3ccc(O)cc3)cn(C)c2=O)CC[C@H]1C [Compound 3, (–)-sambutoxin] | – | IC50: 16.9 ± 0.6 µM
C/C=C/[C@@H]1[C@H]2C[C@@H](C)CC[C@@H]2C(C)=C[C@H]1C(=O)c1c(O)c(-c2ccc(O)cc2)c[nH]c1=O [Compound 4, ilicicolin H] | 16.5 ± 0.7 | –
C/C=C/[C@@H]1Oc2c(-c3ccccc3)c[nH]c(=O)c2[C@@H]2[C@H]1CCC[C@H]2C [Compound 5, deoxyleporin B] | 57.3 ± 1.3 | –
C/C=C/[C@@H]1Oc2c(-c3ccccc3)cn(O)c(=O)c2[C@@H]2[C@H]1CCC[C@H]2C [Compound 6, leporine B] | > 100 | –
CCC(C)C(=O)OC1(C)C(=O)C(C)=C(OC)C1O (stereo not drawn) [Compound 7, Talaketides A] | > 100 | –
COC1=CC(=O)C(C)(O)C1(O)C(C)=O (stereo not drawn) [Compound 8, Talaketides B] | > 100 | –
CCC(C)C(=O)OC1(C)C(=O)C(C)=C(OC)CC1OC (stereo not drawn) [Compound 9, Talaketides C] | > 100 | –
COC1=CC(=O)C(C)(O)C(O)C1C (stereo not drawn) [Compound 10, Talaketides D] | > 100 | –
COC1=CC(=O)C(C)(O)C(O)C1C (stereo not drawn) [Compound 11, Talaketides E] | – | IC50 [2]: > 100 µM
COC1=CC(=O)C(C)(O)C(O)C1C (stereo not drawn) [Compound 12, Talaketides F] | – | IC50 [2]: > 100 µM
